Conditions: Liquid; for speed of sound: Pulse-echo method; for mass density: 101.33 kPa

CCCCCCCO [heptan-1-ol]
Conditions | speed of sound [m/s]
292.76 K, 75990 kPa | 1654.2
292.77 K, 30390 kPa | 1487.3
292.77 K, 45590 kPa | 1546.9
292.77 K, 60790 kPa | 1602.6
292.77 K, 91180 kPa | 1702
292.77 K, 101320 kPa | 1732.7
292.78 K, 15200 kPa | 1421.7
292.89 K, 100 kPa | 1345.4
298.06 K, 15200 kPa | 1404.9
298.06 K, 30390 kPa | 1471.8
298.06 K, 45590 kPa | 1532.3
298.06 K, 60790 kPa | 1588.2
298.06 K, 75990 kPa | 1640.4
298.06 K, 91180 kPa | 1688.9
298.06 K, 101320 kPa | 1719.6
298.17 K, 100 kPa | 1327.2
302.94 K, 15200 kPa | 1389.5
302.94 K, 30390 kPa | 1457.3
302.94 K, 45590 kPa | 1518.7
302.94 K, 60790 kPa | 1575.3
302.94 K, 91180 kPa | 1677
302.94 K, 101320 kPa | 1708
302.95 K, 75990 kPa | 1628
303.14 K, 100 kPa | 1310.2
307.93 K, 60790 kPa | 1561.9
307.93 K, 91180 kPa | 1664.8
307.94 K, 15200 kPa | 1374
307.94 K, 30390 kPa | 1442.8
307.94 K, 45590 kPa | 1505
307.94 K, 75990 kPa | 1615.5
307.94 K, 101320 kPa | 1696
308.12 K, 100 kPa | 1293.2
312.9 K, 30390 kPa | 1428.7
312.9 K, 45590 kPa | 1491.6
312.9 K, 60790 kPa | 1549.1
312.9 K, 75990 kPa | 1603.1
312.9 K, 91180 kPa | 1653
312.91 K, 15200 kPa | 1358.9
312.91 K, 101320 kPa | 1684.7
313.09 K, 100 kPa | 1276.3
318.29 K, 30390 kPa | 1413.6
318.29 K, 45590 kPa | 1477.5
318.29 K, 60790 kPa | 1535.5
318.29 K, 75990 kPa | 1590
318.29 K, 91180 kPa | 1640.6
318.29 K, 101320 kPa | 1672.4
318.3 K, 15200 kPa | 1342.8
318.37 K, 100 kPa | 1258.6

Conditions | mass density [kg/m3]
293.15 K | 822.297
298.15 K | 818.796
303.15 K | 815.269
308.15 K | 811.724
313.15 K | 808.158
318.15 K | 804.546

CCCCCCCCCO [nonan-1-ol]
Conditions | speed of sound [m/s]
292.86 K, 45590 kPa | 1579.5
292.86 K, 91180 kPa | 1731.8
292.86 K, 101320 kPa | 1762
292.87 K, 15200 kPa | 1456.7
292.87 K, 30390 kPa | 1520.8
292.87 K, 60790 kPa | 1634
292.87 K, 75990 kPa | 1684.4
292.88 K, 100 kPa | 1382.8
297.95 K, 60790 kPa | 1620
297.95 K, 91180 kPa | 1718.7
297.95 K, 101320 kPa | 1749.2
297.96 K, 15200 kPa | 1440.2
297.96 K, 30390 kPa | 1505.4
297.96 K, 45590 kPa | 1564.5
297.96 K, 75990 kPa | 1670.7
298.18 K, 100 kPa | 1364.6
302.93 K, 45590 kPa | 1550.1
302.93 K, 60790 kPa | 1606
302.93 K, 75990 kPa | 1657.6
302.93 K, 91180 kPa | 1705.8
302.93 K, 101320 kPa | 1736.7
302.94 K, 15200 kPa | 1424.3
302.94 K, 30390 kPa | 1490.2
303.16 K, 100 kPa | 1347.5
307.91 K, 30390 kPa | 1475.5
307.91 K, 45590 kPa | 1536
307.91 K, 60790 kPa | 1592.4
307.92 K, 15200 kPa | 1408.5
307.92 K, 75990 kPa | 1644.7
307.92 K, 91180 kPa | 1693.2
307.92 K, 101320 kPa | 1724.3
308.14 K, 100 kPa | 1330.6
312.91 K, 15200 kPa | 1392.8
312.91 K, 30390 kPa | 1460.8
312.91 K, 45590 kPa | 1522.2
312.91 K, 60790 kPa | 1578.9
312.91 K, 75990 kPa | 1632
312.91 K, 91180 kPa | 1681.1
312.91 K, 101320 kPa | 1712.3
313.11 K, 100 kPa | 1313.8
318.29 K, 100 kPa | 1296.3
318.38 K, 45590 kPa | 1507.3
318.38 K, 60790 kPa | 1564.6
318.38 K, 75990 kPa | 1618.3
318.38 K, 91180 kPa | 1667.8
318.38 K, 101320 kPa | 1699.1
318.39 K, 15200 kPa | 1375.9
318.39 K, 30390 kPa | 1444.8
318.39 K, 45590 kPa | 1507.3
318.39 K, 91180 kPa | 1667.8

Conditions | mass density [kg/m3]
293.15 K | 827.66
298.15 K | 824.239
303.16 K | 820.8
308.15 K | 817.345
313.15 K | 813.868
318.15 K | 810.376

CCCCCCCCCCO [decan-1-ol]
Conditions | speed of sound [m/s]
292.86 K, 60790 kPa | 1646.3
292.9 K, 30390 kPa | 1533.8
292.91 K, 15200 kPa | 1470.6
292.96 K, 45590 kPa | 1592
293.1 K, 100 kPa | 1397.2
297.95 K, 15200 kPa | 1453.8
297.95 K, 66240 kPa | 1649.8
297.96 K, 30390 kPa | 1518
297.96 K, 60790 kPa | 1631.4
297.96 K, 69300 kPa | 1660
297.98 K, 45590 kPa | 1576.8
297.99 K, 71850 kPa | 1668.2
297.99 K, 73520 kPa | 1673.6
297.99 K, 74700 kPa | 1677.6
298 K, 75990 kPa | 1681.7
298.07 K, 100 kPa | 1380
302.92 K, 15200 kPa | 1436.8
303.02 K, 60790 kPa | 1617
303.03 K, 66240 kPa | 1635.7
303.03 K, 71560 kPa | 1653.5
303.04 K, 100 kPa | 1362.8
303.04 K, 73600 kPa | 1660.2
303.05 K, 69230 kPa | 1645.7
303.08 K, 30390 kPa | 1501.5
303.09 K, 75990 kPa | 1667.8
303.11 K, 45590 kPa | 1561
303.15 K, 74790 kPa | 1664.1
307.92 K, 75990 kPa | 1655.1
307.93 K, 74720 kPa | 1650.9
307.94 K, 73310 kPa | 1646.2
307.95 K, 65860 kPa | 1620.9
307.96 K, 60790 kPa | 1603.1
307.96 K, 68850 kPa | 1631.3
307.96 K, 71380 kPa | 1639.8
307.97 K, 30390 kPa | 1486.6
307.98 K, 45590 kPa | 1546.9
308.04 K, 100 kPa | 1345.8
308.09 K, 15200 kPa | 1420
313 K, 60790 kPa | 1589.4
313 K, 65980 kPa | 1607.8
313 K, 69200 kPa | 1618.9
313.01 K, 100 kPa | 1329
313.01 K, 45590 kPa | 1532.5
313.03 K, 30390 kPa | 1471.9
313.03 K, 72900 kPa | 1631.5
313.04 K, 75990 kPa | 1641.7
313.06 K, 15200 kPa | 1404.5
318.18 K, 100 kPa | 1311.7
318.36 K, 15200 kPa | 1387.7
318.4 K, 65950 kPa | 1593.7
318.41 K, 60790 kPa | 1575.1
318.43 K, 72660 kPa | 1617
318.43 K, 73870 kPa | 1621.1
318.43 K, 75990 kPa | 1628.2
318.44 K, 30390 kPa | 1456
318.44 K, 45590 kPa | 1517.7
318.45 K, 30390 kPa | 1455.9

Conditions | mass density [kg/m3]
293.15 K | 829.758
298.15 K | 826.37
303.15 K | 822.95
308.15 K | 819.57
313.15 K | 816.12
318.15 K | 812.634

CCCCCCCCO [octan-1-ol]
Conditions | speed of sound [m/s]
292.77 K, 15230 kPa | 1440.3
292.77 K, 30430 kPa | 1505.2
292.77 K, 76010 kPa | 1670.1
292.78 K, 60800 kPa | 1619.3
292.79 K, 91200 kPa | 1717.8
292.83 K, 45610 kPa | 1564.1
292.83 K, 96120 kPa | 1733
292.92 K, 100 kPa | 1365.2
298.07 K, 76040 kPa | 1656.5
298.07 K, 91190 kPa | 1703.9
298.07 K, 97840 kPa | 1724.3
298.09 K, 45610 kPa | 1548.8
298.09 K, 60840 kPa | 1604.6
298.13 K, 30410 kPa | 1488.8
298.19 K, 15200 kPa | 1422.6
298.2 K, 100 kPa | 1347.1
303.15 K, 76000 kPa | 1642.8
303.16 K, 91200 kPa | 1691.2
303.18 K, 100 kPa | 1330.2
303.2 K, 101340 kPa | 1722.3
303.26 K, 60820 kPa | 1590.2
303.27 K, 15200 kPa | 1406.2
303.27 K, 45600 kPa | 1533.9
303.28 K, 30410 kPa | 1473.3
308.12 K, 91200 kPa | 1679.2
308.12 K, 101320 kPa | 1710.3
308.16 K, 100 kPa | 1313.3
308.16 K, 91210 kPa | 1679.1
308.17 K, 30400 kPa | 1458.8
308.17 K, 76020 kPa | 1630
308.18 K, 45600 kPa | 1520.3
308.18 K, 60790 kPa | 1576.8
308.19 K, 15210 kPa | 1390.7
313.15 K, 100 kPa | 1296.5
313.22 K, 91200 kPa | 1666.8
313.22 K, 101340 kPa | 1697.8
313.23 K, 76000 kPa | 1616.6
313.26 K, 15200 kPa | 1375.1
313.26 K, 30390 kPa | 1443.9
313.26 K, 45590 kPa | 1506.1
313.28 K, 60790 kPa | 1563.5
318.33 K, 100 kPa | 1279.2
318.82 K, 45600 kPa | 1491
318.82 K, 60790 kPa | 1549.2
318.82 K, 75990 kPa | 1603.4
318.82 K, 101330 kPa | 1684.9
318.83 K, 15200 kPa | 1357.8
318.83 K, 91180 kPa | 1653.7
318.84 K, 30390 kPa | 1427.8

Conditions | mass density [kg/m3]
293.15 K | 825.048
298.15 K | 821.636
303.15 K | 818.173
308.15 K | 814.675
313.15 K | 811.171
318.15 K | 807.654
